Measurements as given in ChEMBL document CHEMBL3352542, “Synthesis, biological evaluation and molecular modeling study of 2-(1,3,4-thiadiazolyl-thio and 4-methyl-thiazolyl-thio)-quinazolin-4-ones as a new class of DHFR inhibitors” (Bioorg Med Chem Lett, 2014).
pIC50: −log10 of the molar value. Activity calls are given as the source filed them. The rule behind the calls is not given here.

What was measured:
NCI-H522 = experiment: Growth inhibition of human NCI-H522 cells at 10 uM after 48 hrs; assay type: functional
HCT-15 = experiment: Growth inhibition of human HCT15 cells at 10 uM after 48 hrs; assay type: functional
HCC 2998 = experiment: Growth inhibition of human HCC2998 cells at 10 uM after 48 hrs; assay type: functional
MCF7 = experiment: Growth inhibition of human MCF7 cells at 10 uM after 48 hrs; assay type: functional
SF-539 = experiment: Growth inhibition of human SF539 cells at 10 uM after 48 hrs; assay type: functional
OVCAR-4 = experiment: Growth inhibition of human OVCAR4 cells at 10 uM after 48 hrs; assay type: functional
NCI-H460 = experiment: Growth inhibition of human NCI-H460 cells at 10 uM after 48 hrs; assay type: functional
SF-295 = experiment: Growth inhibition of human SF295 cells at 10 uM after 48 hrs; assay type: functional
Bacillus subtilis = experiment: Antimicrobial activity against Bacillus subtilis assessed as inhibition zone at 200 ug/disk after 24 hrs by disc-diffusion method; assay type: functional; settings: read-out: IZ
Malme-3M = experiment: Growth inhibition of human MALME-3M cells at 10 uM after 48 hrs; assay type: functional
TK-10 = experiment: Growth inhibition of human TK10 cells at 10 uM after 48 hrs; assay type: functional
LOX IMVI = experiment: Growth inhibition of human LOXIMVI cells at 10 uM after 48 hrs; assay type: functional
Staphylococcus aureus = experiment: Antimicrobial activity against Staphylococcus aureus assessed as inhibition zone at 200 ug/disk after 24 hrs by disc-diffusion method; assay type: functional; settings: read-out: IZ
OVCAR-8 = experiment: Growth inhibition of human OVCAR8 cells at 10 uM after 48 hrs; assay type: functional
SF-268 = experiment: Growth inhibition of human SF268 cells at 10 uM after 48 hrs; assay type: functional
MDA-MB-435 = experiment: Growth inhibition of human MDA-MB-435 cells at 10 uM after 48 hrs; assay type: functional
UACC-257 = experiment: Growth inhibition of human UACC257 cells at 10 uM after 48 hrs; assay type: functional
COLO 205 = experiment: Growth inhibition of human COLO205 cells at 10 uM after 48 hrs; assay type: functional
RPMI-8226 = experiment: Growth inhibition of human RPMI8226 cells at 10 uM after 48 hrs; assay type: functional
MOLT-4 = experiment: Growth inhibition of human MOLT4 cells at 10 uM after 48 hrs; assay type: functional
PC-3 = experiment: Growth inhibition of human PC3 cells at 10 uM after 48 hrs; assay type: functional
M14 = experiment: Growth inhibition of human M14 cells at 10 uM after 48 hrs; assay type: functional
SR = experiment: Growth inhibition of human SR cells at 10 uM after 48 hrs; assay type: functional
CAKI-1 = experiment: Growth inhibition of human CAKI-1 cells at 10 uM after 48 hrs; assay type: functional
SN12C = experiment: Growth inhibition of human SN12C cells at 10 uM after 48 hrs; assay type: functional
Dihydrofolate reductase = target: T1, Dihydrofolate reductase (Bos taurus, UniProt P00376); experiment: Inhibition of bovine liver DHFR
T1 sequence (P00376 whole entry): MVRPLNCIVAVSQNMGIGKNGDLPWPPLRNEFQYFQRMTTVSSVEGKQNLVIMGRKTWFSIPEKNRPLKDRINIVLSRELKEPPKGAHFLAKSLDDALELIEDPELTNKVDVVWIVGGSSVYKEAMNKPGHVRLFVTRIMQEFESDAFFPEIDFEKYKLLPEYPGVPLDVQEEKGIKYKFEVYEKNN

SNB-75 = experiment: Growth inhibition of human SNB75 cells at 10 uM after 48 hrs; assay type: functional
HOP-92 = experiment: Growth inhibition of human HOP92 cells at 10 uM after 48 hrs; assay type: functional
HCT-116 = experiment: Growth inhibition of human HCT116 cells at 10 uM after 48 hrs; assay type: functional
NCI-H226 = experiment: Growth inhibition of human NCI-H226 cells at 10 uM after 48 hrs; assay type: functional
RXF 393 = experiment: Growth inhibition of human RXF393 cells at 10 uM after 48 hrs; assay type: functional
K562 = experiment: Growth inhibition of human K562 cells at 10 uM after 48 hrs; assay type: functional
BT-549 = experiment: Growth inhibition of human BT549 cells at 10 uM after 48 hrs; assay type: functional
NCI-H23 = experiment: Growth inhibition of human NCI-H23 cells at 10 uM after 48 hrs; assay type: functional
A498 = experiment: Growth inhibition of human A498 cells at 10 uM after 48 hrs; assay type: functional
HL-60(TB) = experiment: Growth inhibition of human HL-60(TB) cells at 10 uM after 48 hrs; assay type: functional
NCI/ADR-RES = experiment: Growth inhibition of human NCI-ADR-RES cells at 10 uM after 48 hrs; assay type: functional
OVCAR-3 = experiment: Growth inhibition of human OVCAR3 cells at 10 uM after 48 hrs; assay type: functional
MDA-MB-231 = experiment: Growth inhibition of human MDA-MB-231 cells at 10 uM after 48 hrs; assay type: functional
T47D = experiment: Growth inhibition of human T47D cells at 10 uM after 48 hrs; assay type: functional
A549 = experiment: Growth inhibition of human A549 cells at 10 uM after 48 hrs; assay type: functional
786-0 = experiment: Growth inhibition of human 786-0 cells at 10 uM after 48 hrs; assay type: functional
UO-31 = experiment: Growth inhibition of human UO31 cells at 10 uM after 48 hrs; assay type: functional
Candida albicans = experiment: Antimicrobial activity against Candida albicans assessed as inhibition zone at 200 ug/disk after 24 hrs by disc-diffusion method; assay type: functional; settings: read-out: IZ
OVCAR-5 = experiment: Growth inhibition of human OVCAR5 cells at 10 uM after 48 hrs; assay type: functional
Pseudomonas aeruginosa = experiment: Antimicrobial activity against Pseudomonas aeruginosa assessed as inhibition zone at 200 ug/disk after 24 hrs by disc-diffusion method; assay type: functional; settings: read-out: IZ
U-251 = experiment: Growth inhibition of human U251 cells at 10 uM after 48 hrs; assay type: functional
CCRF-CEM = experiment: Growth inhibition of human CCRF-CEM cells at 10 uM after 48 hrs; assay type: functional
Hs-578T = experiment: Growth inhibition of human Hs 578T cells at 10 uM after 48 hrs; assay type: functional
ACHN = experiment: Growth inhibition of human ACHN cells at 10 uM after 48 hrs; assay type: functional
SNB-19 = experiment: Growth inhibition of human SNB19 cells at 10 uM after 48 hrs; assay type: functional
Escherichia coli = experiment: Antimicrobial activity against Escherichia coli assessed as inhibition zone at 200 ug/disk after 24 hrs by disc-diffusion method; assay type: functional; settings: read-out: IZ
SK-MEL-5 = experiment: Growth inhibition of human SK-MEL-5 cells at 10 uM after 48 hrs; assay type: functional
SW-620 = experiment: Growth inhibition of human SW620 cells at 10 uM after 48 hrs; assay type: functional
KM12 = experiment: Growth inhibition of human KM12 cells at 10 uM after 48 hrs; assay type: functional
UACC-62 = experiment: Growth inhibition of human UACC62 cells at 10 uM after 48 hrs; assay type: functional
MDA-MB-468 = experiment: Growth inhibition of human MDA-MB-468 cells at 10 uM after 48 hrs; assay type: functional
HT-29 = experiment: Growth inhibition of human HT-29 cells at 10 uM after 48 hrs; assay type: functional

## Cc1ccc2nc(Sc3nnc(N)s3)n(Cc3ccccc3)c(=O)c2c1
NCI-H522
  growth inhibition (GI): inactive
HCT-15
  growth inhibition (GI): inactive
HCC 2998
  growth inhibition (GI): inactive
MCF7
  growth inhibition (GI): inactive
SF-539
  growth inhibition (GI): inactive
OVCAR-4
  growth inhibition (GI): inactive
NCI-H460
  growth inhibition (GI): inactive
SF-295
  growth inhibition (GI): inactive
Bacillus subtilis
  zone of inhibition at 200 µg/disc: 8 mm
Malme-3M
  growth inhibition (GI): inactive
TK-10
  growth inhibition (GI): inactive
LOX IMVI
  growth inhibition (GI): inactive
Staphylococcus aureus
  zone of inhibition at 200 µg/disc: 8 mm
OVCAR-8
  growth inhibition (GI): inactive
SF-268
  growth inhibition (GI): inactive
MDA-MB-435
  growth inhibition (GI): inactive
UACC-257
  growth inhibition (GI): inactive
COLO 205
  growth inhibition (GI): inactive
RPMI-8226
  growth inhibition (GI): inactive
MOLT-4
  growth inhibition (GI): inactive
PC-3
  growth inhibition (GI): inactive
M14
  growth inhibition (GI): inactive
SR
  growth inhibition (GI): inactive
CAKI-1
  growth inhibition (GI): inactive
SN12C
  growth inhibition (GI): inactive
Dihydrofolate reductase
  pIC50: 5.70
SNB-75
  growth inhibition (GI): inactive
HOP-92
  growth inhibition (GI): inactive
HCT-116
  growth inhibition (GI): inactive
NCI-H226
  growth inhibition (GI): inactive
RXF 393
  growth inhibition (GI): inactive
K562
  growth inhibition (GI): inactive
BT-549
  growth inhibition (GI): inactive
NCI-H23
  growth inhibition (GI): inactive
A498
  growth inhibition (GI): inactive
HL-60(TB)
  growth inhibition (GI): inactive
NCI/ADR-RES
  growth inhibition (GI): inactive
OVCAR-3
  growth inhibition (GI): inactive
MDA-MB-231
  growth inhibition (GI): inactive
T47D
  growth inhibition (GI): inactive
A549
  growth inhibition (GI): inactive
786-0
  growth inhibition (GI): inactive
UO-31
  growth inhibition (GI): inactive
Candida albicans
  zone of inhibition at 200 µg/disc: 8 mm
OVCAR-5
  growth inhibition (GI): inactive
Pseudomonas aeruginosa
  zone of inhibition at 200 µg/disc: 8 mm
U-251
  growth inhibition (GI): inactive
CCRF-CEM
  growth inhibition (GI): inactive
Hs-578T
  growth inhibition (GI): inactive
ACHN
  growth inhibition (GI): inactive
SNB-19
  growth inhibition (GI): inactive
Escherichia coli
  zone of inhibition at 200 µg/disc: 8 mm
SK-MEL-5
  growth inhibition (GI): inactive
SW-620
  growth inhibition (GI): inactive
KM12
  growth inhibition (GI): inactive
UACC-62
  growth inhibition (GI): inactive
MDA-MB-468
  growth inhibition (GI): inactive
HT-29
  growth inhibition (GI): inactive

## COc1ccc(-n2c(Sc3sc(N)nc3C)nc3cc(OC)c(OC)cc3c2=O)cc1
NCI-H522
  growth inhibition (GI): inactive
HCT-15
  growth inhibition (GI): inactive
HCC 2998
  growth inhibition (GI): inactive
MCF7
  growth inhibition (GI): inactive
SF-539
  growth inhibition (GI): inactive
OVCAR-4
  growth inhibition (GI): inactive
NCI-H460
  growth inhibition (GI): inactive
SF-295
  growth inhibition (GI): inactive
Bacillus subtilis
  zone of inhibition at 200 µg/disc: 8 mm
Malme-3M
  growth inhibition (GI): inactive
TK-10
  growth inhibition (GI): inactive
LOX IMVI
  growth inhibition (GI): inactive
Staphylococcus aureus
  zone of inhibition at 200 µg/disc: 8 mm
OVCAR-8
  growth inhibition (GI): inactive
SF-268
  growth inhibition (GI): inactive
MDA-MB-435
  growth inhibition (GI): inactive
UACC-257
  growth inhibition (GI): inactive
COLO 205
  growth inhibition (GI): inactive
RPMI-8226
  growth inhibition (GI): inactive
MOLT-4
  growth inhibition (GI): inactive
PC-3
  growth inhibition (GI): inactive
M14
  growth inhibition (GI): inactive
SR
  growth inhibition (GI): inactive
CAKI-1
  growth inhibition (GI): inactive
SN12C
  growth inhibition (GI): inactive
Dihydrofolate reductase
  pIC50: 6.00
SNB-75
  growth inhibition (GI): inactive
HOP-92
  growth inhibition (GI): inactive
HCT-116
  growth inhibition (GI): inactive
NCI-H226
  growth inhibition (GI): inactive
RXF 393
  growth inhibition (GI): inactive
K562
  growth inhibition (GI): inactive
BT-549
  growth inhibition (GI): inactive
NCI-H23
  growth inhibition (GI): inactive
A498
  growth inhibition (GI): inactive
HL-60(TB)
  growth inhibition (GI): inactive
NCI/ADR-RES
  growth inhibition (GI): inactive
OVCAR-3
  growth inhibition (GI): inactive
MDA-MB-231
  growth inhibition (GI): inactive
T47D
  growth inhibition (GI): inactive
A549
  growth inhibition (GI): inactive
786-0
  growth inhibition (GI): inactive
UO-31
  growth inhibition (GI): inactive
Candida albicans
  zone of inhibition at 200 µg/disc: 8 mm
OVCAR-5
  growth inhibition (GI): inactive
Pseudomonas aeruginosa
  zone of inhibition at 200 µg/disc: 8 mm
U-251
  growth inhibition (GI): inactive
CCRF-CEM
  growth inhibition (GI): inactive
Hs-578T
  growth inhibition (GI): inactive
ACHN
  growth inhibition (GI): inactive
SNB-19
  growth inhibition (GI): inactive
Escherichia coli
  zone of inhibition at 200 µg/disc: 8 mm
SK-MEL-5
  growth inhibition (GI): inactive
SW-620
  growth inhibition (GI): inactive
KM12
  growth inhibition (GI): inactive
UACC-62
  growth inhibition (GI): inactive
MDA-MB-468
  growth inhibition (GI): inactive
HT-29
  growth inhibition (GI): inactive
